Data set [1] can be described thus: Stereoselective pharmacokinetics in rat liver tissue. It is filed as in vivo, Sprague–Dawley rats. Conditions: rat liver, oral 40 mg/kg farrerol racemate; for AUC(0–t) / AUC(0–∞) / Cmax: 40 mg/kg. Here is the method: (§1) Forty-two rats were divided randomly into seven groups (6 rats per time point at 0.5, 1, 2, 4, 8, 12, and 24 h) and were orally administered farrerol racemate at a dose of 40 mg/kg. Rats from each group were euthanized, and kidney and liver tissues were subsequently obtained. After washing three times using 0.9% sodium chloride solution, the attached blood and fat tissues were removed. Afterward, 0.5 g of the precisely weighed liver and kidney tissues were added to 1 mL 0.9% sodium chloride solution and homogenized in an ice bath. Subsequently, 150 µL of supernatant was transferred into a 2.0 mL EP tube for pre-treatment, in the same way as the pretreatment of plasma samples (see Section 3.4.1).
(§2) Stereoselective chromatographic analysis of farrerol enantiomers was conducted utilizing an ACQUITY UPLC I-Class UPLC system (Waters, Milford, MA, USA), which is equipped with a quaternary pump and an autosampler. The chiral separation was carried out employing a Chiralpak OJ-RH column (250 mm × 4.6 mm, 5 μm), which was obtained from Daicel Chemical Industries (Shanghai, China). The mobile phase consisted of ACN-H2O (60:40, v/v), and the constant flow rate was 0.5 mL/min. The column temperature was set at 25 °C, and the injection volume was 10 μL.
(§3) Mass detection was conducted using a triple quadrupole mass spectrometer (Waters Co., USA) equipped with an electrospray ionization (ESI) source. The detection of enantiomers and internal standards (IS) was carried out in multiple reaction monitoring (MRM) mode utilizing negative ionization. The m/z 299→179 for enantiomers and m/z 267→252 for IS were selected as detecting ions for quantitation. The collision energies (CE) were established at 22 eV and 20 eV, respectively. The primary mass spectrometry (MS) parameters were configured as follows: capillary voltage was set to 3.5 kV, ion source temperature was maintained at 150 °C, desolvation gas flow rate was 800 L/h, and the cone voltage (CV) was adjusted to 1.3 V.
(§4) Pharmacokinetic analysis was conducted utilizing the Drug and Statistics (DAS) 2.0 software provided by the Chinese Pharmacological Society. To assess the differences in pharmacokinetic parameters, the IC50 values of the evaluated CYP enzymes and the permeability coefficients between the two farrerol enantiomers, paired sample t-tests and independent sample t-tests were performed. Statistical significance was defined as * p < 0.05 and ** p < 0.01. All results are presented as mean values ± standard deviation (SD).

The nature of data set [2]: Stereoselective pharmacokinetics in rat kidney tissue. It is filed as in vivo, Sprague–Dawley rats. The conditions noted are these: rat kidney, oral 40 mg/kg farrerol racemate; for AUC(0–t) / AUC(0–∞) / Cmax: 40 mg/kg. How it is done: as §1, §2, §3, §4
Data set [3] deals with CYP2D6 (Homo sapiens, UniProt P10635). The experiment in a line: CYP inhibition in liver microsomes (dextromethorphan). The data set is classed as in vitro ADME. The conditions noted are these: CYP 2D6, marker substrate dextromethorphan. Here is the method: (§5) A liver microsome working solution (20 mg/mL) contained potassium phosphate buffer (0.1 M, pH 7.4), hepatic microsomes and marker substrate solution, which phenacetin, diclofenic acid, S-mephenytoinwer, dextromethorphan, midazolam, coumarin and chlorzoxazone used as substrates for […], CYP2C9, CYP2C19, CYP2D6, CYP3A4/5, CYP2A6 and CYP2E1, respectively. In brief, 238.5 µL of liver microsome working solution was placed in a 1 mL EP tube. […] The reaction was started by injecting NADPH (1 mM), and the resulting mixture was incubated at 37 °C for 10 min. After centrifuging at 4000 rpm for 15 min, the supernatant was transferred and analyzed using LC-MS/MS to detect the corresponding metabolites. Each incubation was conducted in triplicate (n = 3).
Chain of CYP2D6 (P10635 whole entry): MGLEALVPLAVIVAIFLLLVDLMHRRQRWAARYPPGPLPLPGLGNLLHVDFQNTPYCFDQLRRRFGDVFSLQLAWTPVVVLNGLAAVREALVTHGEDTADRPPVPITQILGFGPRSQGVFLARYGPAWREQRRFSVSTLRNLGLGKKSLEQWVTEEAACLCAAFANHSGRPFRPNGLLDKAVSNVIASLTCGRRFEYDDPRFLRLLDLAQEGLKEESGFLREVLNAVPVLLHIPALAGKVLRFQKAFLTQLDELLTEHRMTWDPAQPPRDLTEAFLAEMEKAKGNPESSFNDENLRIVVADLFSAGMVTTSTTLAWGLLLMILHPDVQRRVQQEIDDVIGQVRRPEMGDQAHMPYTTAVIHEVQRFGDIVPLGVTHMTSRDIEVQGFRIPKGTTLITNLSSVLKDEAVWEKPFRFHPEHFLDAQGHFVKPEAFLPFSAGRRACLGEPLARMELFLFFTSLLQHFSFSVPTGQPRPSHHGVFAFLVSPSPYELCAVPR
An API 4000 LC/tandem mass spectrometry was used to analyze the concentration of metabolites of various chemical agents using a validated mode. An Atlantis T3 column (2.1 mm × 50 mm, 5 μm) was utilized, employing mobile phases consisting of a 0.1% formic acid solution (A) and a 0.1% acetonitrile formate solution (B). […] MRM was utilized to quantify each metabolite, detecting the following transitions: m/z 152.1/110 for acetaminophen, 312.1/230.0 for 4′-Hydroxydiclofenac, 235.0/150.0 for 4′-hydroxymephentoin, 258.2/199.1 for Dextrorphan, 342.1/203.0 for 1′-hydroxymidazolam, 161.1/133.1 for hydroxycoumarin, and 184.0/120.0 for 6-hydroxyclozoxadone.

The test system of data set [4] is CYP3A4/5. Briefly: CYP inhibition in liver microsomes (midazolam). The conditions noted are these: CYP 3A4/5(M); marker substrate midazolam; liver microsomes. How it is done:
as §5
(§6) An API 4000 LC/tandem mass spectrometry was used to analyze the concentration of metabolites of various chemical agents using a validated mode. An Atlantis T3 column (2.1 mm × 50 mm, 5 μm) was utilized, employing mobile phases consisting of a 0.1% formic acid solution (A) and a 0.1% acetonitrile formate solution (B). […] As for the detection of CYP 2E1 metabolite, the Flow composition was as follows: 0–0.30 min, 10% B; 0.30–1.30 min, 10–55% B; 1.30–1.50 min, 55–95% B; 1.50–2.00 min, 95% B; 2.00–2.01 min, 95–10% B; the low rate was 0.85 mL/min. ESI was conducted in positive ion mode. MRM was utilized to quantify each metabolite, detecting the following transitions: m/z 152.1/110 for acetaminophen, 312.1/230.0 for 4′-Hydroxydiclofenac, 235.0/150.0 for 4′-hydroxymephentoin, 258.2/199.1 for Dextrorphan, 342.1/203.0 for 1′-hydroxymidazolam, 161.1/133.1 for hydroxycoumarin, and 184.0/120.0 for 6-hydroxyclozoxadone.

Data set [5] has as its target T1, CYP2A6 (Homo sapiens, UniProt P11509).
T1 sequence (P11509 1-494): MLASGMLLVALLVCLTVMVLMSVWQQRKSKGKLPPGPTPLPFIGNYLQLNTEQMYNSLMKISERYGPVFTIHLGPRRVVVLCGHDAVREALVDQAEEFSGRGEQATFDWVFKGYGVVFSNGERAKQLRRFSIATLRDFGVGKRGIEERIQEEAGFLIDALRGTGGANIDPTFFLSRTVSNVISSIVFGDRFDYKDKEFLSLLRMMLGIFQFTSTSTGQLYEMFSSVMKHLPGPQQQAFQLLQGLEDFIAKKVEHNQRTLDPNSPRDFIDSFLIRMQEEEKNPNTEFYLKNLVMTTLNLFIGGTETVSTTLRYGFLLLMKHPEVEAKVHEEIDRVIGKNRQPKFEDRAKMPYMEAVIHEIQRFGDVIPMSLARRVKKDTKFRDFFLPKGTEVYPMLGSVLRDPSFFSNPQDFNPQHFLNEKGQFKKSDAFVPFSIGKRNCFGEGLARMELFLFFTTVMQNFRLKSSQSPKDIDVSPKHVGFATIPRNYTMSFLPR
Briefly: CYP inhibition in liver microsomes (coumarin). Here is the method:
as §5, §6

Several values for one entry are separate records, joined by “and”; a condition that tells them apart may be missing. Equal values may be shown once. Read-outs that look alike come from different tables or passages of the source.

The values that follow come from PMC12073438, “Stereoselectivity of In Vivo Processes and Bioactivity of Farrerol Enantiomers” (Molecules, 2025).

With `Cc1c(O)c(C)c2c(c1O)C(=O)CC(c1ccc(O)cc1)O2` (single isomer, unassigned; (-)) [(−)-farrerol, 2,3-dihydro-5,7-dihydroxy-2-(4-hydroxyphenyl)-6,8-dimethyl-4-benzopyrone], in data set [1], the “AUC0–24 of (−)-farrerol relative to (+)-farrerol” value was 1.23 times; the “Cmax of (−)-farrerol relative to (+)-farrerol” value amounted to 1.43 times; the Tmax was 2.00 h; the “AUC(0–t)” value was 1200.9 µg/g*h and 1200.96 ± 58.92 * µg/g*h. Moreover, in data set [1], the “AUC(0–∞)” value is 1217.62 ± 65.03 * µg/g*h and the peak concentration (Cmax) is on record as 148.4 ± 2.61 * µg/g. Further, in data set [2], the “AUC0–24 of (−)-farrerol relative to (+)-farrerol” value stood at 1.20 times, the time to peak (Tmax) is reported as 1.00 h, the “AUC(0–t)” value is listed as 28.89 ± 2.53 * µg/g*h and the “AUC(0–∞)” value is 30.31 ± 2.47 * µg/g*h. Further, the highest concentration (Cmax) in data set [2] is 4.18 ± 0.48 * µg/g. For the same compound, the IC50 in data set [3] is greater than 50 µM. The IC50 in data set [4] turned out to be 2.09e-05 M. The half-inhibitory concentration (IC50) in data set [5] (CYP 2A6, marker substrate coumarin, liver microsomes) is greater than 50 µM.

Take `Cc1c(O)c(C)c2c(c1O)C(=O)CC(c1ccc(O)cc1)O2` (single isomer, unassigned; (+)) [(+)-farrerol, 2,3-dihydro-5,7-dihydroxy-2-(4-hydroxyphenyl)-6,8-dimethyl-4-benzopyrone]: the Cmax in data set [1] (Sprague-Dawley, rat, liver, po, read-out: Cmax) was found to be 104000 ± 18000 ng/g; in data set [2] (Sprague-Dawley, rat, kidney, po, read-out: Cmax), 3020 ± 350 ng/g. The Tmax in data set [1] (Sprague-Dawley, read-out: Tmax) was found to be 2 h; in data set [2] (Sprague-Dawley, read-out: Tmax), 1 h. Also, the “AUC(0–t)” value in data set [1] was 976.25 ± 41.60 µg·h/g; in data set [2] it was 23.93 ± 2.11 µg·h/g. Also, the “AUC(0–∞)” value was found to be 994.01 ± 40.84 µg·h/g in data set [1] and 25.70 ± 2.09 µg·h/g in data set [2]. Moreover, the IC50 is greater than 50 µM in data set [3], greater than 5e-05 M in data set [4] and greater than 50 µM in data set [5].
